Assay results: patent US20080103191A1, “ENTACAPONE-DERIVATIVES” (priority 2006, published 2008)

Columns and labels:
[1] = Pharmacokinetic profile of compound 15 in Labrasol, TPGS/PG or phosphate buffer in rats; format: in vivo, Male Sprague-Dawley rats; conditions: oral 10 mg/kg entacapone equivalents, FIG. 1
Experimental: The pharmacokinetics of compound 15 in rats following oral administration is tested as described in Table 15 below.
The results are summarized in FIG. 1 (The symbols in FIG. 1 have the following meanings: c (ng/mL) concentration in ng/mL, t (min) time in minutes). […] Entacapone concentration is shown in ng/mL, and time is shown in minutes.

[2] = Stability of TPGS/PG formulations in simulated gastric fluid (precipitate formation); format: physicochemical; conditions: for Precipitate formation, directly after addition: 1.0 mL TPGS/PG solution added to 10 mL SGF, visual inspection; for Precipitate formation, 24 h: TPGS/PG solution in SGF
Experimental: (§1) Simulated gastric fluid (SGF) is prepared as follows. 200 mg NaCl are dissolved in 70 mL H2O. 0.7 mL concentrated HCl is added. Subsequently, 320 mg of pepsin powder is added, and the mixture is filled up to 100 mL with H2O. A clear solution is obtained (pH 1-2).
2 mL TPGS/PG is added to 5-6 mg of the respective compound of formula I, and the obtained solutions are shaken for 5 h. […] 1.0 mL of the centrifuged solution is added drop-wise to 10 mL SGF. Precipitate formation is determined by visual inspection of each solution immediately after addition of the solution comprising the respective compound of formula I in TPGS/PG to SGF and after 24 hours.

[3] = Stability of Labrasol formulations in simulated gastric fluid (precipitate formation); format: physicochemical; conditions: for Precipitate formation, directly after addition: 3 mg in 1.5 mL Labrasol added to 10 mL SGF, visual inspection; for Precipitate formation, 5 min / Precipitate formation, 15 min / Precipitate formation, 30 min / Precipitate formation, 60 min / Precipitate formation, 24 h: Labrasol solution in SGF
Experimental: as §1
1.5 mL of Labrasol® is added to 3 mg of the respective compound of formula I, and the obtained solutions are shaken. Subsequently, each of the solutions is added to 10 mL SGF by drop-wise addition. Precipitate formation is determined by visual inspection of each solution immediately after the addition of the solution comprising the respective compound of formula I in Labrasol® to SGF and after 5, 15, 30, and 60 min, and 24 h.

[4] = Stability in TPGS/PG over 22 h; format: physicochemical; conditions: for Amount of compound: TPGS/PG, ambient temperature; for Amount of entacapone: entacapone formed in TPGS/PG
Experimental: The stability of selected compounds of formula I in TPGS/PG over 22 h is tested by the following procedure: […]
37.5 mg of compounds 15, 35 and 57, respectively […] of compound 63, are in each case added to 25 mL of TPGS/PG (25% by weight of TPGS, 75% by weight of PG) (concentration of compounds 15, 35, 57:1.5 mg/mL; concentration of compound 63:1.4 mg/mL). Each formulation obtained is stirred for 22 h at ambient temperature. The amount of the respective compound of formula I and the amount of entacapone are determined after 5 h, 8 h, 11 h, and 22 h by HPLC assay. Reversed phase gradient HPLC method, column YMC Pro C8, 50 mm×4.0 mm, 3 μm, Eluent A: Water:trifluoroacetic acid (100:0.5 (v/v)), Eluent B: Acetonitrile:trifluoroacetic acid (100:0.5 (v/v)). Column temperature 30° C., Flow rate 3.0 mL/min, Detection wavelength: 220 nm

[5] = Permeability in Caco-2 cells, apical to basolateral; format: in vitro ADME; design: dose or concentration left out as unconfirmed; conditions: human; 21d Caco-2 monolayer, apical pH 6.5 to basolateral pH 7.4, 60 minutes
Method in brief: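 21-day Caco-2 monolayers dosed apically at 20 mM nominal test item concentration, apical pH 6.5, basolateral pH 7.4. Basolateral receiver sampled after 60 min and quantified by HPLC or LC-MS/MS; ³H-propranolol and ³H-mannitol controls sampled at 120 min and measured by scintillation.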

[6] = 5 h, start 1.5 mg/mL (compound 63: 1.4 mg/mL)

plasma level of entacapone formed, compared with phosphate buffer formulation ([1]; Labrasol formulation)	plasma level of entacapone formed, compared with phosphate buffer formulation ([1]; TPGS/PG formulation)	Precipitate formation, directly after addition [2]	Precipitate formation, 24 h [2]	Precipitate formation, directly after addition ([3]; after shaking)	Precipitate formation, directly after addition ([3]; initially, before shaking)	Precipitate formation, 5 min [3]	Precipitate formation, 15 min [3]	Precipitate formation, 30 min [3]	Precipitate formation, 60 min [3]	Precipitate formation, 24 h [3]	Amount of compound [4, 6]	Amount of compound ([4]; 8 h)	Amount of compound ([4]; 11 h)	Amount of compound ([4]; 22 h)	Amount of entacapone ([4]; 5 h)	Amount of entacapone ([4]; 8 h)	Amount of entacapone ([4]; 11 h)	Amount of entacapone ([4]; 22 h)	Papp A→B at 60 min [5]	Compound
more constant	more constant	clear	clear	clear after shaking	First: white precipitate;	clear	clear	clear	clear	clear	1.23 mg/mL	1.23 mg/mL	1.16 mg/mL	1.05 mg/mL	0.05 mg/mL	0.06 mg/mL	0.10 mg/mL	0.17 mg/mL	–	CCCCC(CC)COC(=O)Oc1cc(/C=C(\C#N)C(=O)N(CC)CC)cc([N+](=O)[O-])c1O (stereo not drawn) [Compound 15, Carbonic acid 5-((E)-2-cyano-2-diethylcarbamoyl-vinyl)-2-hydroxy-3-nitro-phenyl ester 2-ethyl-hexyl ester]
–	–	clear	clear	clear after shaking	First: white precipitate;	clear	clear	clear	clear	clear	1.21 mg/mL	1.36 mg/mL	1.40 mg/mL	1.23 mg/mL	0.03 mg/mL	0.05 mg/mL	0.07 mg/mL	0.08 mg/mL	> 42 ×10⁻⁶ cm/s	CCCCCCCCOC(=O)Oc1cc(/C=C(\C#N)C(=O)N(CC)CC)cc([N+](=O)[O-])c1O [Compound 35, Carbonic acid 5-((E)-2-cyano-2-diethylcarbamoyl-vinyl)-2-hydroxy-3-nitro-phenyl ester octyl ester]
–	–	clear	clear	clear after shaking	First: white precipitate;	clear	clear	clear	clear	clear	1.37 mg/mL	1.39 mg/mL	1.35 mg/mL	1.31 mg/mL	0.03 mg/mL	0.04 mg/mL	0.05 mg/mL	0.08 mg/mL	55 ×10⁻⁶ cm/s	CCN(CC)C(=O)/C(C#N)=C/c1cc(OC(=O)OCC2CCCCC2)c(O)c([N+](=O)[O-])c1 [Compound 57, Carbonic acid 5-((E)-2-cyano-2-diethylcarbamoyl-vinyl)-2-hydroxy-3-nitro-phenyl ester cyclohexylmethyl ester]
–	–	clear	clear	clear after shaking	First: white precipitate;	clear	clear	clear	clear	clear	1.25 mg/mL	1.12 mg/mL	1.16 mg/mL	1.08 mg/mL	0.02 mg/mL	0.02 mg/mL	0.02 mg/mL	0.03 mg/mL	–	CCCC(C)OC(=O)Oc1cc(/C=C(\C#N)C(=O)N(CC)CC)cc([N+](=O)[O-])c1O (stereo not drawn) [Compound 63, Carbonic acid 5-((E)-2-cyano-2-diethylcarbamoyl-vinyl)-2-hydroxy-3-nitro-phenyl ester 1-methyl-butyl ester]
